Patent US20240117431A1, “STEM-CELL BASED BIOMARKER DISCOVERY” (THE REGENTS OF THE UNIVERSITY OF CALIFORNIA, priority 2020, published 2024)
Entries after “also recorded” stand apart in the source; their conditions may differ.

What was measured:
[1] = target: T1, uracil monophosphate synthetase (UMPS) overexpressed in HEK cells (Homo sapiens, UniProt P11172); test: RNA incorporation with overexpression of UMPS, dot blot; format: cell-based; settings: 1 mM, 24 hours, FIG. 12
T1 construct: expressed in transfected cells; host or cells: HEK cells
T1 sequence (P11172 1-480): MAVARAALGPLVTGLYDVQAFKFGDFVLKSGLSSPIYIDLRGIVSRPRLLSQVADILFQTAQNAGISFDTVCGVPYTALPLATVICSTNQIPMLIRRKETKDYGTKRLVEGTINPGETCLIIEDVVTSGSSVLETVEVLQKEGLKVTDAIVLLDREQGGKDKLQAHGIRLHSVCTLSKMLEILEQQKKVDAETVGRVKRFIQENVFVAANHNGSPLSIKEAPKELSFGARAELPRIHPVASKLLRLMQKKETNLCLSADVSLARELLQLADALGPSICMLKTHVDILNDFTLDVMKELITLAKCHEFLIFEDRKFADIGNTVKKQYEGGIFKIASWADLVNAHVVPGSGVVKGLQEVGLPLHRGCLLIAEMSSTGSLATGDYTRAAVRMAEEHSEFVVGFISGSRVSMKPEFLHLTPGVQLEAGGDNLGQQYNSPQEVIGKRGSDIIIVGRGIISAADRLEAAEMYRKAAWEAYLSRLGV
Method: Analogs were incubated for 24 hours at 1 mM concentration in HEK cells. RNA was extracted and biotinylated using MTSEA-Biotin, followed by dot-blot analysis. Strep-HRP=Streptavidin conjugated Horseradish peroxidase. MeBI=methylene blue staining serving as loading control.

[2] = target: T2, wild-type (WT) TgUPRT in HEK cells (Toxoplasma gondii, UniProt Q26998); test: In-cell RNA incorporation by wild-type TgUPRT, streptavidin dot blot; format: cell-based; settings: wild-type TgUPRT active site
T2 construct: 6xHis; expressed in transfected cells; host or cells: HEK293 (HEK293T)
T2 sequence (Q26998 whole entry): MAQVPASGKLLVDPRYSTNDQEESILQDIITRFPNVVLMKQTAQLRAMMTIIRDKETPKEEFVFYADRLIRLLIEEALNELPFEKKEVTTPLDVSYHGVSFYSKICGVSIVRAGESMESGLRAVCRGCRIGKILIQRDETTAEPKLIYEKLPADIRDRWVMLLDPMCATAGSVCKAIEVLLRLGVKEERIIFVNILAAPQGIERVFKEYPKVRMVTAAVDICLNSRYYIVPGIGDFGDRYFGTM
Method: (§1) Transfection, labeling of cellular RNA and RNA isolation: After 48h seeding, HEK293 cells were transfected with 2.5 μg of TgUPRT WT or mutant plasmids (pKN-CMV-TgUPRT-WT or -Mutt to Mut17) per 5 cm plate using JetPrime Transfection reagent (Polyplus Transfection, France). At 40h post-transfection, cells were incubated with a final concentration of 200 μM at <1% DMSO from 400 mM stock of uracil analogs (5EU, 5VU, 5AU) or 200 mM SAMU stock for 5 h. For time course study, HEK cells were treated with 200 μM uracil analogs for 0 h, 0.5, 1, 3, 5, 12 and 24 hours. For titrating uracil analog concentration experiments, HEK cells were treated with 0 (DMSO), 50, 100, 200, 500 μM or 1 mM uracil analog for 5h. Treated HEK cells were subjected to total RNA extraction using 1 mL Trizol Reagent (Invitrogen) following the manufacturer instructions.
(§2) Biotinylation via CuAAC and IEDDA: Cu-mediated Azide-Alkyne cycloaddition (CuAAC) click reactions were performed in 50 μL reaction at 22° C. on a shaker for 30 min with click reaction cocktail containing 15 μg of total RNA, 1 mM biotin alkyne or biotin azide, fresh 4.6 mM THPTA to a final concentration of 1 mM, and fresh 10.6 mM sodium ascorbate (NaAsc) at final concentration of 1.77 mM, and 12 mM CuSO4 at final concentration of 200 μM in biotinylation reaction buffer (10 mM TrisHCI, 1 mM EDTA, pH7.4). The biotinylated RNA was purified using RNA clean & Concentrator-5 kit (Zymo Research, Cat #R1013) according to the manufacturer instructions and eluted in 21 μL of nuclease free water.
(§3) Inverse electron demand [4+2] Diels-Alder cycloaddition (IEDDA) click reactions were performed in 50 μL at 37° C. or 22° C. (RT) for 3h on mixer at 500 rpm containing 10-15 μg of total RNA, 1 mM final concentration of biotin-benzyl tetrazine (Sigma Aldrich, Cat #793329-5MG) in nuclease free water. Clicked total RNA was purified using RNA clean & Concentrator-5 kit (Zymo Research, Cat #R1013) according to the manufacturer instructions, and RNA was eluted in 21 μL of nuclease free water.
HRP-streptavidin dot blot analysis: All gel reagents were from Bio-Rad. […]

UPRT(+)-microglia brains = test: In vivo labeling of brain RNA in mice transplanted with UPRT-expressing human microglia, biotin dot blot; settings: IP close to 150 mg/kg, 24-48 hours, FIG. 14
Method: 5-vinyl-uracil (Alfa Aesar #4437903) was prepared in sterile conditions at 4 times the concentration in 100% DMSO, then diluted to 25% DMSO by adding corn oil to a final concentration of 500 mM. The mixture was heated to 37° C. for […] until homogenous. Mice are weighed before intraperitoneal injection (IP) injection to ensure close to 150 mg/kg are injected per treatment. For an (˜20 g) adult mouse typically 60-70 μl are IP injected per treatment. Mice are monitored for signs of distress. After 24-48 hours of treatment, mice were sacrificed and brains were immediately placed into 2 ml of RNAlater and left in 4° C. for 3-5 days. After removing brains from RNAlater, they were homogenized with RNAse-free 1.4 mm steel beads (Next Advance SSB14B-RNA) for 60 seconds and centrifuged at 4° C. for 5 min, maximum speed to separate the fatty layer. The bottom layer is collected, homogenized with 200 ul chloroform and centrifuged for 20 minutes, at 4° C. The aqueous layer is collected and 500 ul isopropanol added. After centrifugation for 30 minutes 4° C., the RNA pellet is washed in 70% Ethanol twice. After removing ethanol, the RNA pellet is resuspended in nuclease-free water and nanodrop to determine the concentration. From each sample, 15 μg of RNA was subjected in tetrazine-biotin ligation at 37° C., 500 RPM for 3 hours. The biotinylated RNA was purified with RNA Zymo Clean and Concentrator #5 and eluted with nuclease-free water. 2 μg of purified RNA was spotted onto a N+ Hybond membrane and UV-crosslinked at 254 nm (120,000 uJ). Membrane is blocked in blocking buffer (0.12 M NaCl, 0.016 M Na2HPO4, 0.008 M NaH2PO4, 0.17 M SDS) and followed by incubation with high sensitivity streptavidin-HRP (Fisher Scientific, Cat #: P121130) at 1:5000 dilution in blocking buffer for 5 minutes. The membrane was washed twice in a Wash A buffer (1:10 dilution of blocking buffer) and twice in Wash B buffer (Tris-saline buffer). It was then incubated for 1-5 min. in ECL Chemiluminescent Substrate (Fisher Scientific, Cat #: P132106) and imaged on a ChemiDoc MP imaging system (Bio-Rad). […]

mutants TgUPRT = test: Phosphoribosyltransferase activity with recombinant TgUPRT mutants; format: biochemical, Toxoplasma gondii; settings: five recombinant TgUPRT mutants, FIG. 9A
Method: Enzyme activity assay: The standard activity assay was performed by incubating 10 μL of free extract or 0.5 μg of pure His-tag enzyme with 1 mM Phosphoribosyl pyrophosphate (PRPP), 1 mM uracil, 5 mM MgCl2 in 50 mM PBS buffer pH 7.4 in a final volume of 80 μL. The reaction mixture was incubated at 37° C. for 2-5 min (300 rpm). Enzyme was inactivated by adding 80 μL of cold methanol in ice-bath and heating for 5 min at 100° C. After centrifugation at 9000×g for 5 min, samples were half-diluted with water and the NMP production was analysed by HPLC to quantitatively measure the reaction products as described below in the analytical methods. All determinations were carried out in triplicate assuming Michaelis-Menten conditions, and the maximum error was below 5%. In such conditions, one international activity unit (IU) was defined as the amount of enzyme producing 1 μmol/min of UMP under the assay conditions.
Substrate specificity studies Enzymatic synthesis of the different pyrimidine nucleoside monophosphate (NMP) derivatives was carried out by incubating 0.5 μg of pure His-tag enzyme with 1 mM PRPP, 1 mM pyrimidine base and 5 mM MgCl2 in 50 mM PBS buffer pH 7.4 (1.6-3.2% v/v DSMO). The experiments were performed according to the standard assay. Subsequently, the reaction mixture was processed as described above and the NMP production was analyzed by HPLC.
Analytical methods: The production of NMPs was quantitatively measured with an ACE EXCEL 5 μm CN-ES 250×4.6 mm equilibrated with 100% trimethyl ammonium acetate at a flow rate of 0.8 mL/min. Retention times for the reference bases and NMPs (hereafter abbreviated according to the recommendations of the IUPAC-IUB Commission on Biochemical Nomenclature) were as follows: uracil (Ura), 4.7 min; 5-azido uracil (5-AUra). […]
Following these exciting observations, a more quantitative approach to examined for differences between enzyme mutants and their enzyme kinetics with the analogs. […] Each purified enzyme was incubated with the different substrates and phosphoribosyltransferase activity was measured (FIG. 9A).

(−)TgUPRT HEK cells = test: Background incorporation of uracil analogs into RNA, streptavidin-HRP dot blot; format: cell-based; settings: 1 mM, mimics in vivo applications, FIG. 4
Method: as §1, §2, §3
HRP-streptavidin dot blot analysis: All gel reagents were from Bio-Rad. For dot blot analysis, 2 μg of clicked total RNA was applied onto Hybond-N+ membrane (GE Healthcare) as individual dots and UV-crosslinked (254 nm) to a membrane (Stratalinker UV crosslinker). Membranes were blocked in blocking buffer (0.12 M NaCl, 0.016 M Na2HPO4, 0.008 M NaH2PO4, 0.17 M SDS) and followed by incubation with high sensitivity streptavidin-HRP (Fisher Scientific, Cat #: P121130) at 1:5000 dilution in blocking buffer for 5 minutes. The membrane was washed twice in a Wash A buffer (1:10 dilution of blocking buffer) and twice in Wash B buffer (Tris-saline buffer). […]

## O=c1[nH]ccc(=S)[nH]1 [4-thiouracil, reference compound]
[1]
  incorporation into cellular RNA with UMPS overexpression: higher amount
[2]
  TgUPRT-dependent incorporation into cellular RNA: has the ability to be incorporated into cellular RNA

## O=c1[nH]c(=S)ccn1[C@@H]1O[C@H](CO)[C@@H](O)[C@H]1O [4-thiouridine, reference compound]
[1]
  incorporation into cellular RNA with UMPS overexpression: incorporation

## C=Cc1cn([C@@H]2O[C@H](CO)[C@@H](O)[C@H]2O)c(=O)[nH]c1=O [5-vinyluridine, reference compound]
UPRT(+)-microglia brains
  incorporation into brain RNA, UPRT(+)-microglia transplanted: incorporated into brain RNA; also recorded: incorporation

## O=c1cc[nH]c(=O)[nH]1 [Uracil, uracil, reference compound]
Mutants TgUPRT
  reactivity with the mutants (phosphoribosyltransferase activity): reactivity of uracil for all five mutants was observed

## [N-]=[N+]=Nc1c[nH]c(=O)[nH]c1=O [compound 4, 5-Azidopyrimidine-2,4(1H,3H)-dione]
(−)TgUPRT HEK cells
  incorporation into RNA at higher concentration: higher incorporation
